Source: patent US20240409585A1, “MACROCYCLIC IMMUNOMODULATORS” (priority 2021, published 2024)
Numbered stars: 1 amine (or outer) side, 2 acyl side, 3 side chain; on linkers, the order of the positions; unused ones are H or OH. Bridge positions count the residues as written; N and C are the ends. Square brackets hold non-standard residues; d marks the D form. Peptide text beside a SMILES is read from it. * marks the point of attachment. Bip(4'-COOH) = N[C@@H](Cc1ccc(-c2ccc(C(=O)O)cc2)cc1)C(=O)O; Bip(4'-NHAc) = CC(=O)Nc1ccc(-c2ccc(C[C@H](N)C(=O)O)cc2)cc1; Phe(3-CF3) = N[C@@H](Cc1cccc(C(F)(F)F)c1)C(=O)O; Ala(morpholin-4-yl) = N[C@@H](CN1CCOCC1)C(=O)O; Phe(4-CONH2) = NC(=O)c1ccc(C[C@H](N)C(=O)O)cc1; Phe(4-COOH) = N[C@@H](Cc1ccc(C(=O)O)cc1)C(=O)O; Bip = N[C@@H](Cc1ccc(-c2ccccc2)cc1)C(=O)O; Phe(3-F) = N[C@@H](Cc1cccc(F)c1)C(=O)O; Phe(3-I) = N[C@@H](Cc1cccc(I)c1)C(=O)O; Phe(3-Me) = Cc1cccc(C[C@H](N)C(=O)O)c1; Abu(3S-NH2) = C[C@H](N)[C@H](N)C(=O)O; Malonyl = O=C(CC(=O)[*:2])[*:1]; Cha = N[C@@H](CC1CCCCC1)C(=O)O; Carboxymethyl = O=C(O)C*; NMeA = CN[C@@H](C)C(=O)O; Orn = NCCC[C@H](N)C(=O)O; Dab = NCC[C@H](N)C(=O)O

Key:
[1] = molecular target: T1, PE-labeled human PD-L1-Ig binding to Jurkat cell line over-expressing human PD-1 (Jurkat-PD-1) (Homo sapiens, UniProt Q15116); test: Jurkat-PD-1 Cell Binding High-Content Screening Assay (CBA): Method 2 (presence and absence of tween-20); details: Jurkat-PD-1 cells, PE-labeled PD-L1-Ig 20 nM, presence or absence of tween-20 not given
T1 construct: expressed in transfected cells; host or cells: Jurkat
T1 sequence (Q15116 25-288): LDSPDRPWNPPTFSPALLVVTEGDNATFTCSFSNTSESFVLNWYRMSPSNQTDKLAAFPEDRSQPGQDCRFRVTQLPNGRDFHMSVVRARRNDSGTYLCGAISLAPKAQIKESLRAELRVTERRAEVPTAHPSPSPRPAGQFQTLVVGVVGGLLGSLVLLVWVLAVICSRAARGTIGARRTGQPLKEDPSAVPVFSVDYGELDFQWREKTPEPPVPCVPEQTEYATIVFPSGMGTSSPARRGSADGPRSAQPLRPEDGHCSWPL
How it was run: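 Compounds incubated with Jurkat cells overexpressing human PD-1 for 2 h at 37° C, tested with and without tween-20 to flag aggregation. PE-labeled human PD-L1-Ig (20 nM final) added in DMEM/10% FCS; binding read by high-content imaging.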

[2] = molecular target: T1, PE-labeled human PD-L1-Ig binding to Jurkat cell line over-expressing human PD-1 (Jurkat-PD-1); test: Jurkat-PD-1 Cell Binding High-Content Screening Assay (CBA): Method 1; details: Jurkat-PD-1 cells, PE-labeled PD-L1-Ig
[3] = head μM, read-out: CBA Method 2 μM

SMILES	IC50 [1, 3] [µM]	IC50 ([2]; μM, read-out: CBA Method 1 μM) [µM]	IC50 ([1]; nM, read-out: CBA Method 2) [µM]	IC50 ([2]; nM, read-out: CBA Method 1) [µM]
CC(C)C[C@H]1NC(=O)[C@H](C)N(C)C(=O)[C@H](CCC(N)=O)NC(=O)[C@H](Cc2ccc(-c3ccccc3)cc2)NC(=O)[C@H](Cc2ccc(C(=O)O)cc2)NC(=O)[C@H](Cc2cccc(C(F)(F)F)c2)NC(=O)[C@H](CCNC(=O)CC(=O)O)NC(=O)[C@H](Cc2ccc(C(=O)O)cc2)NC(=O)[C@H](CN2CCOCC2)NC(=O)CSC[C@@H](C(=O)N[C@@H](CCN)C(N)=O)NC(=O)[C@H](CCCN)NC(=O)[C@H](C(C)C)NC(=O)[C@H](CC2CCCCC2)NC(=O)[C@H](CCN)NC1=O [Example 5075] ({CH2CO}-[Ala(morpholin-4-yl)][Phe(4-COOH)][Dab](Malonyl)[Phe(3-CF3)][Phe(4-COOH)][Bip]Q[NMeA][dL][Dab][Cha]V[Orn]C[Dab]-NH2; thioether N-14)	0.372	0.128	–	–
CC(C)C[C@H]1NC(=O)[C@H](C)N(C)C(=O)[C@H](CCC(N)=O)NC(=O)[C@H](Cc2ccc(-c3ccccc3)cc2)NC(=O)[C@H](Cc2ccc(C(=O)O)cc2)NC(=O)[C@H](Cc2cccc(C(F)(F)F)c2)NC(=O)[C@H](CC(=O)O)NC(=O)[C@H](Cc2ccc(OCC(=O)O)cc2)NC(=O)[C@H](CN2CCOCC2)NC(=O)CSC[C@@H](C(=O)N[C@@H](CCN)C(N)=O)NC(=O)[C@H](CCCN)NC(=O)[C@H](C(C)C)NC(=O)[C@H](CC2CCCCC2)NC(=O)[C@H](CCN)NC1=O [Example 5014] ({CH2CO}-[Ala(morpholin-4-yl)]Y(Carboxymethyl)D[Phe(3-CF3)][Phe(4-COOH)][Bip]Q[NMeA][dL][Dab][Cha]V[Orn]C[Dab]-NH2; thioether N-14)	0.04	0.17	–	–
CC(C)C[C@H]1NC(=O)[C@H](C)N(C)C(=O)[C@H](CCC(N)=O)NC(=O)[C@H](Cc2ccc(-c3ccccc3)cc2)NC(=O)[C@H](Cc2ccc(C(=O)O)cc2)NC(=O)[C@H](Cc2cccc(C(F)(F)F)c2)NC(=O)[C@H](CC(=O)O)NC(=O)[C@H](Cc2ccc(OCC(=O)O)cc2)NC(=O)[C@H](CN2CCOCC2)NC(=O)CSC[C@@H](C(=O)N[C@@H](CCN)C(N)=O)NC(=O)[C@H](CCCN)NC(=O)[C@H](C(C)C)NC(=O)[C@H](CC2CCCCC2)NC(=O)[C@H](CCN)NC1=O [Example 5013] ({CH2CO}-[Ala(morpholin-4-yl)]Y(Carboxymethyl)D[Phe(3-CF3)][Phe(4-COOH)][Bip]Q[NMeA][dL][Dab][Cha]V[Orn]C[Dab]-NH2; thioether N-14)	–	–	0.004	0.011

More lines, in order of falling IC50 [1, 3], values ahead:

IC50 [1, 3] [µM]	IC50 ([2]; μM, read-out: CBA Method 1 μM) [µM]	IC50 ([1]; nM, read-out: CBA Method 2) [µM]	IC50 ([2]; nM, read-out: CBA Method 1) [µM]	SMILES
0.0348	0.0544	–	–	Cc1cccc(C[C@@H]2NC(=O)[C@H](CC(=O)O)NC(=O)[C@H](Cc3ccc(C(=O)O)cc3)NC(=O)[C@H](CC(C)C)NC(=O)CSC[C@@H](C(=O)N[C@@H](CCN)C(N)=O)NC(=O)[C@H](CCCN)NC(=O)[C@H](C(C)C)NC(=O)[C@H](Cc3cccc(F)c3)NC(=O)[C@H](CCN)NC(=O)[C@@H](CC(C)C)NC(=O)[C@H](C)N(C)C(=O)[C@H](CCC(N)=O)NC(=O)[C@H](Cc3ccc(-c4ccccc4)cc3)NC(=O)[C@H](Cc3ccc(-c4ccc(C(=O)O)cc4)cc3)NC2=O)c1 [Example 5064] ({CH2CO}-L[Phe(4-COOH)]D[Phe(3-Me)][Bip(4'-COOH)][Bip]Q[NMeA][dL][Dab][Phe(3-F)]V[Orn]C[Dab]-NH2; thioether N-14)
0.005	0.0059	–	–	CC(=O)Nc1ccc(-c2ccc(C[C@@H]3NC(=O)[C@H](Cc4cccc(C(F)(F)F)c4)NC(=O)[C@H](CC(=O)O)NC(=O)[C@H](Cc4ccc(C(=O)O)cc4)NC(=O)[C@H]([C@H](C)N)NC(=O)CSC[C@@H](C(=O)N[C@@H](CCN)C(N)=O)NC(=O)[C@H](CCC(N)=O)NC(=O)[C@H](C(C)C)NC(=O)[C@H](CC4CCCCC4)NC(=O)[C@H](CCN)NC(=O)[C@@H](CC(C)C)NC(=O)[C@H](C)N(C)C(=O)[C@H](Cc4ccc(C(N)=O)cc4)NC(=O)[C@H](Cc4ccc(-c5ccccc5)cc4)NC3=O)cc2)cc1 [Example 5073] ({CH2CO}-[Abu(3S-NH2)][Phe(4-COOH)]D[Phe(3-CF3)][Bip(4'-NHAc)][Bip][Phe(4-CONH2)][NMeA][dL][Dab][Cha]VQC[Dab]-NH2; thioether N-14)
0.0031	0.0045	–	–	Cc1cccc(C[C@@H]2NC(=O)[C@H](CC(=O)O)NC(=O)[C@H](Cc3ccc(OCC(=O)O)cc3)NC(=O)[C@H](Cc3cccc(I)c3)NC(=O)CSC[C@@H](C(=O)N[C@@H](CCN)C(N)=O)NC(=O)[C@H](CCCN)NC(=O)[C@H](C(C)C)NC(=O)[C@H](CC3CCCCC3)NC(=O)[C@H](CCN)NC(=O)[C@@H](CC(C)C)NC(=O)[C@H](C)N(C)C(=O)[C@H](CCC(N)=O)NC(=O)[C@H](Cc3ccc(-c4ccccc4)cc3)NC(=O)[C@H](Cc3ccc(C(=O)O)cc3)NC2=O)c1 [Example 5036] ({CH2CO}-[Phe(3-I)]Y(Carboxymethyl)D[Phe(3-Me)][Phe(4-COOH)][Bip]Q[NMeA][dL][Dab][Cha]V[Orn]C[Dab]-NH2; thioether N-14)
